≈ marks a conversion by molar mass, not a printed value.
Columns and labels:
Pseudomonas aeruginosa [1] = test: Inhibition of Pseudomonas aeruginosa OXA-24/40 assessed as potentiation of piperacillin-induced antibacterial activity at 4 ug/ml by CLSI based broth microdilution method (reference value: > […] ug/ml)
Pseudomonas aeruginosa [2] = test: Inhibition of Pseudomonas aeruginosa KPC-2 assessed as potentiation of piperacillin-induced antibacterial activity at 4 ug/ml by CLSI based broth microdilution method (reference value: > […] ug/ml)
Pseudomonas aeruginosa [3] = test: Inhibition of Pseudomonas aeruginosa AmpC assessed as potentiation of piperacillin-induced antibacterial activity at 4 ug/ml by CLSI based broth microdilution method (reference value: > […] ug/ml)
[4] = Inhibition of NDM1 (unknown origin) using nitrocefin as substrate incubated for 10 mins by UV spectra analysis; set-up: species or system Bacteria
[5] = Inhibition of AmpC beta-lactamase (unknown origin) by Cheng-Prusoff equation analysis; set-up: species or system Bacteria
Staphylococcus = test: Antibacterial activity against methicillin-sensitive Staphylococcus; assay type: functional
Pseudomonas aeruginosa [6] = test: Antibacterial activity against Pseudomonas aeruginosa haboring OXA-24/40 assessed as reduction in microbial growth by CLSI based broth microdilution method; assay type: functional
Pseudomonas aeruginosa [7] = test: Antibacterial activity against Pseudomonas aeruginosa haboring AmpC assessed as reduction in microbial growth by CLSI based broth microdilution method; assay type: functional
Pseudomonas aeruginosa [8] = test: Antibacterial activity against Pseudomonas aeruginosa haboring KPC-2 assessed as reduction in microbial growth by CLSI based broth microdilution method; assay type: functional
Escherichia coli [9] = test: Potentiation of cefepime-induced antibacterial activity against Escherichia coli at 8 ug/ml by CLSI based microdilution method; assay type: functional
Klebsiella pneumoniae [10] = test: Potentiation of cefepime-induced antibacterial activity against Klebsiella pneumoniae at 8 ug/ml by CLSI based microdilution method; assay type: functional
Acinetobacter baumannii [11] = test: Inhibition of OXA-24/40 in Acinetobacter baumannii assessed as potentiation of imipenem-induced antibacterial activity by CLSI based broth microdilution method
Acinetobacter baumannii [12] = test: Inhibition of OXA-24/40 in Acinetobacter baumannii assessed as potentiation of meropenem-induced antibacterial activity by CLSI based broth microdilution method
Klebsiella pneumoniae [13] = test: Antibacterial activity against Klebsiella pneumoniae by CLSI based microdilution method
Escherichia coli [14] = test: Antibacterial activity against Escherichia coli by CLSI based microdilution method
Beta-lactamase TEM = Beta-lactamase TEM (Escherichia coli, UniProt P62593); test: Inhibition of Escherichia coli TEM-1 beta-lactamase
Beta-lactamase TEM, sequence (P62593 whole entry): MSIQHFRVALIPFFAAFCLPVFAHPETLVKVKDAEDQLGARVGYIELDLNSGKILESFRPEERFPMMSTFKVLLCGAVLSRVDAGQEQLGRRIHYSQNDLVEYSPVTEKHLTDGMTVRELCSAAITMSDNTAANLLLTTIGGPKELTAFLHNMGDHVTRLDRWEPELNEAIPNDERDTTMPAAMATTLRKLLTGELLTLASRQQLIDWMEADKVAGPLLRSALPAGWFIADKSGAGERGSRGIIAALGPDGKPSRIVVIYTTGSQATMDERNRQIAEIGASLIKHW

Escherichia coli [15] = test: Inhibition of Escherichia coli PBP2 assessed as ratio of Kinact to Ki by SDS-PAGE based fluorescence assay
Acinetobacter baumannii [16] = test: Inhibition of Acinetobacter baumannii PBP2 assessed as ratio of Kinact to Ki by SDS-PAGE based fluorescence assay
Acinetobacter baumannii [17] = test: Antibacterial activity against Acinetobacter baumannii Ab1 clinical isolate harboring OXA-23 infected in BALB/c mouse pneumonia model assessed as reduction in bacterial burden by measuring bacterial growth at 50 mg,kg, im after 22 hrs co-treatment with imipenem; assay type: functional
[18] = system: Beta-lactamase (Acinetobacter baumannii), Q8RLA6 [Y112A,M223A]; test: Inhibition of Acinetobacter baumannii OXA-24 Y112A/M223A mutant by spectrophotometric method relative to control; settings: concentration not given here
Beta-lactamase (Acinetobacter baumannii), Q8RLA6 [Y112A,M223A], sequence (Q8RLA6 whole entry Y112A/M223A): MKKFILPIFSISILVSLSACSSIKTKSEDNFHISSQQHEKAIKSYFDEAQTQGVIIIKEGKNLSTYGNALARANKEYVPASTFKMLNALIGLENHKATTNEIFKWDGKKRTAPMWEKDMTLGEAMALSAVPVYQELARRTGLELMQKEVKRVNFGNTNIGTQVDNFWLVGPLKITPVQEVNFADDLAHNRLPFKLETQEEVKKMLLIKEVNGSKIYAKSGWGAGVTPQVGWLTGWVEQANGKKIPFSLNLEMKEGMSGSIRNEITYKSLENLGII

Acinetobacter baumannii [19] = test: Antibacterial activity against Acinetobacter baumannii JC12/04 clinical isolate harboring OXA-24/40 infected in BALB/c mouse pneumonia model assessed as reduction in bacterial burden by measuring bacterial growth at 50 mg,kg, im after 22 hrs co-treatment with imipenem; assay type: functional
Acinetobacter baumannii [20] = test: Antibacterial activity against Acinetobacter baumannii ATCC 17978 harboring OXA-24/40 infected in BALB/c mouse pneumonia model assessed as reduction in bacterial burden by measuring bacterial growth at 50 mg,kg, im after 22 hrs co-treatment with imipenem; assay type: functional
Acinetobacter baumannii [21] = test: Antibacterial activity against Acinetobacter baumannii ATCC 17978 harboring OXA-23 infected in BALB/c mouse pneumonia model assessed as reduction in bacterial burden by measuring bacterial growth at 50 mg,kg, im after 22 hrs co-treatment with imipenem; assay type: functional
Acinetobacter baumannii [22] = test: Inhibition of Acinetobacter baumannii OXA-24 by spectrophotometry relative to control; settings: concentration not given here
[23] = system: Beta-lactamase (Acinetobacter baumannii), Q8RLA6 [Y112A]; test: Inhibition of Acinetobacter baumannii OXA-24 Y112A mutant by spectrophotometric method relative to control; settings: concentration not given here
Beta-lactamase (Acinetobacter baumannii), Q8RLA6 [Y112A], sequence (Q8RLA6 whole entry Y112A): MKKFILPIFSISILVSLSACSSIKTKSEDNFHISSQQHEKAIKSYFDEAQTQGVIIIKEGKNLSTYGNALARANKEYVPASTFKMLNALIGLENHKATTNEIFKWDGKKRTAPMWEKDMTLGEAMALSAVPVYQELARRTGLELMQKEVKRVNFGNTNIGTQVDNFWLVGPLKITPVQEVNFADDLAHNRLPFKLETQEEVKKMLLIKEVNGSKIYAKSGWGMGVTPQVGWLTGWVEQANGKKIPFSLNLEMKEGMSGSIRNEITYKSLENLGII

[24] = Inhibition of Acinetobacter baumannii OXA-24 by spectrophotometric method
Escherichia coli [25] = test: Antibacterial activity against Escherichia coli harboring beta-lactamase infected in mouse relative to control; assay type: functional
Enterobacteriaceae [26] = test: Inhibition of OXA-181 in Enterobacteriaceae assessed as potentiation of meropenem-induced antibacterial activity by CLSI based agar dilution method
Enterobacteriaceae [27] = test: Inhibition of Beta-lactamase KPC in Enterobacteriaceae assessed as potentiation of imipenem-induced antibacterial activity by CLSI based agar dilution method
Enterobacteriaceae [28] = test: Inhibition of Beta-lactamase OXA-48 in Enterobacteriaceae assessed as potentiation of imipenem-induced antibacterial activity by CLSI based agar dilution method
Enterobacteriaceae [29] = test: Inhibition of Beta-lactamase OXA-48 in Enterobacteriaceae assessed as potentiation of meropenem-induced antibacterial activity by CLSI based agar dilution method
Enterobacteriaceae [30] = test: Inhibition of Beta-lactamase KPC in Enterobacteriaceae assessed as potentiation of meropenem-induced antibacterial activity by CLSI based agar dilution method
Enterobacteriaceae [31] = test: Inhibition of OXA-181 in Enterobacteriaceae assessed as potentiation of imipenem-induced antibacterial activity by CLSI based agar dilution method

For `C=C(C)C1=C[C@@H](COC)N2C[C@@H]1N(OS(=O)(=O)O)C2=O`, which MIC (Pseudomonas aeruginosa [1]) is on record?
Its MIC is > 64 µg/mL.

What about the MIC (Pseudomonas aeruginosa [2]) of the same compound?
Its MIC is > 64 µg/mL.

And the MIC (Pseudomonas aeruginosa [3])?
The MIC was > 64 µg/mL.

For `CC1=C[C@@H](CO)N2C[C@@H]1N(OS(=O)(=O)O)C2=O`, which MIC (Pseudomonas aeruginosa [1]) is on record?
The MIC was 64 µg/mL.

What about the MIC (Pseudomonas aeruginosa [2]) of the same compound?
The MIC was 8 µg/mL.

And the MIC (Pseudomonas aeruginosa [3])?
The MIC was 32 µg/mL.

With `N[C@@H](CN[C@@H](CN[C@@H](CC(=O)O)C(=O)O)C(=O)O)C(=O)O` as the compound, how does the IC50 [4] read?
Its IC50 is 9.3 µM.

With `O=C(NCB(O)O)S(=O)(=O)c1cc(Cl)cc(-c2nnn[nH]2)c1` as the compound, how does the Ki [5] read?
Its Ki is 0.2 nM.

Which Ki [5] does the source give for `O=C(NCB(O)O)S(=O)(=O)c1cc(-c2nnn[nH]2)cc(C(F)(F)F)c1` here?
The Ki was 0.05 nM.

For `Cn1cc(/C=C2/C(=O)N3C(C(=O)O)=CS[C@H]23)nn1`, which MIC (Staphylococcus) is on record?
The MIC was 1 µg/mL (≈ 3.78 µM).

What does the source list for `NC(=O)[C@@H]1CC[C@@H]2CN1C(=O)N2OS(=O)(=O)O`?
MIC (Pseudomonas aeruginosa [1]): 64 µg/mL; MIC (Pseudomonas aeruginosa [2]): 8 µg/mL; MIC (Pseudomonas aeruginosa [3]): 8 µg/mL

For `N[C@@H](CN[C@@H](CN[C@H](CC(=O)O)C(=O)O)C(=O)O)C(=O)O`, which IC50 [4] is on record?
Its IC50 is 11.6 µM.

Which MIC (Pseudomonas aeruginosa [6]) does the source give for `CCN1CCN(C(=O)N[C@@H](C(=O)N[C@@H]2C(=O)N3[C@@H]2SC(C)(C)[C@@H]3C(=O)O)c2ccccc2)C(=O)C1=O` [PIPERACILLIN] here?
Its MIC is > 64 µg/mL.

And the MIC (Pseudomonas aeruginosa [7])?
Its MIC is > 64 µg/mL.

What about the MIC (Pseudomonas aeruginosa [8]) of the same compound?
Its MIC is > 64 µg/mL.

Which MIC90 (Escherichia coli [9]) does the source give for `Cn1cc[n+](C[C@@]2(C)[C@H](C(=O)[O-])N3C(=O)C[C@H]3S2(=O)=O)n1` [ENMETAZOBACTAM] here?
The MIC90 was 0.5 µg/mL.

And the MIC90 (Klebsiella pneumoniae [10])?
The MIC90 was 1 µg/mL.

Which results are given for `C[C@]1(Cn2ccnn2)[C@H](C(=O)O)N2C(=O)C[C@H]2S1(=O)=O`?
MIC (Acinetobacter baumannii [11]): 16 µg/mL; MIC (Acinetobacter baumannii [12]): 16 µg/mL

Which results are given for `CO/N=C(\C(=O)N[C@@H]1C(=O)N2C(C(=O)[O-])=C(C[N+]3(C)CCCC3)CS[C@H]12)c1csc(N)n1` [CEFEPIME]?
MIC90 (Klebsiella pneumoniae [13]): 16 µg/mL (≈ 33.3 µM); MIC90 (Escherichia coli [14]): > 64 µg/mL

Which Ki (Beta-lactamase TEM) does the source give for `CC(=O)N[C@@H](Cc1cccc(C(=O)O)c1)B(O)O` here?
Its Ki is 0.11 µM.

For `N[C@H](CN[C@H](CN[C@@H](CC(=O)O)C(=O)O)C(=O)O)C(=O)O`, which IC50 [4] is on record?
The IC50 was 10.2 µM.

For `N[C@H](CN[C@@H](CN[C@@H](CC(=O)O)C(=O)O)C(=O)O)C(=O)O`, which IC50 [4] is on record?
The IC50 was 11.9 µM.

Which MIC (Pseudomonas aeruginosa [1]) does the source give for `CC1=C[C@@H](C#N)N2C[C@@H]1N(OS(=O)(=O)O)C2=O` here?
Its MIC is 8 µg/mL.

What about the MIC (Pseudomonas aeruginosa [2]) of the same compound?
Its MIC is 64 µg/mL.

And the MIC (Pseudomonas aeruginosa [3])?
Its MIC is > 64 µg/mL.

For `CC1=C[C@@H]2CN(C(=O)N2OS(=O)(=O)O)[C@@H]1C(N)=O`, which MIC (Pseudomonas aeruginosa [1]) is on record?
The MIC was 8 µg/mL.

And the Ratio (Escherichia coli [15])?
The Ratio was 1 ×10⁴ /M/s.

And the Ratio (Acinetobacter baumannii [16])?
The Ratio was 1 ×10³ /M/s.

What about the MIC (Pseudomonas aeruginosa [2]) of the same compound?
The MIC was 4 µg/mL.

And the MIC (Pseudomonas aeruginosa [3])?
The MIC was 2 µg/mL.

What does the source list for `C[C@]1(COC(=O)Cc2ccc(O)c(O)c2)[C@H](C(=O)O)N2C(=O)/C(=C/c3ccccn3)[C@H]2S1(=O)=O`?
Activity (Acinetobacter baumannii [17]): 1.7 log10CFU/g; MIC (Acinetobacter baumannii [11]): 1 µg/mL; inhibition [18]: 100%; Activity (Acinetobacter baumannii [19]): 4.5 log10CFU/g; MIC (Acinetobacter baumannii [12]): 1 µg/mL; Activity (Acinetobacter baumannii [20]): 2.5 log10CFU/g; Activity (Acinetobacter baumannii [21]): 4 log10CFU/g; inhibition (Acinetobacter baumannii [22]): 100%; inhibition [23]: 100%; Ki [24]: 0.7 µM

For `N[C@@H](CN[C@H](CN[C@@H](CC(=O)O)C(=O)O)C(=O)O)C(=O)O`, which IC50 [4] is on record?
The IC50 was 12.5 µM.

For `O=C(NCB(O)O)S(=O)(=O)c1ccnc(-c2nnn[nH]2)c1`, which Ki [5] is on record?
Its Ki is 0.8 nM.

What about the Activity (Escherichia coli [25]) of the same compound?
The Activity was 65%.

Which MIC (Pseudomonas aeruginosa [1]) does the source give for `CC1=C[C@@H](C(N)=O)N2C[C@@H]1N(OS(=O)(=O)O)C2=O` here?
The MIC was 16 µg/mL.

What about the MIC (Pseudomonas aeruginosa [2]) of the same compound?
The MIC was 4 µg/mL.

What about the MIC (Pseudomonas aeruginosa [3]) of the same compound?
Its MIC is 8 µg/mL.

For `N#C[C@@H]1CC[C@@H]2CN1C(=O)N2OS(=O)(=O)O`, which MIC (Enterobacteriaceae [26]) is on record?
Its MIC is < 2 µg/mL.

And the MIC (Enterobacteriaceae [27])?
The MIC was < 2 µg/mL.

And the MIC (Enterobacteriaceae [28])?
The MIC was < 2 µg/mL.

And the MIC (Enterobacteriaceae [29])?
The MIC was < 2 µg/mL.

And the MIC (Enterobacteriaceae [30])?
Its MIC is < 2 µg/mL.

What about the MIC (Enterobacteriaceae [31]) of the same compound?
The MIC was < 2 µg/mL.

Reference: ChEMBL document CHEMBL4402541, “β-Lactamase Inhibitors To Restore the Efficacy of Antibiotics against Superbugs” (J Med Chem, 2020)
